US7868135B2, “Compositions of lipopeptide antibiotic derivatives and methods of use thereof” (priority 2003, dated 2011)
Where two headings read alike, the source gives them in different places.

System: Staphylococcus aureus (MSSA)
Method: (“Approved Standard M7-A3”).
The antimicrobial lipopeptide derivatives described herein were tested for antimicrobial activity against Gram-positive bacteria as follows. The minimum inhibitory concentrations (MIC) of the antimicrobial lipopeptide derivatives of the invention were determined using NCCLS guidelines M7-A6 (2003) with a slight modification in that doubling serial dilutions were used to dilute the test compounds. The broth phase microdilution method was used. Isolated colonies of Staphylococcus aureus (MSSA) from an 18-24 hour blood agar plate cultures were used to inoculate cation adjusted Mueller-Hinton broth (CAMHB) supplemented with 0.625 mM calcium. […] A negative control containing media alone and a positive growth control containing bacteria with media alone were also included. MICs were determined after incubating the plates at about 37° C. for 24 hours. […] In Tables 1 to 16, R is the core cyclic peptide of amphomycin or aspartocin, which can be in the form of a β-isomer, an anhydro, a dianhydro, or any combination thereof. […] Furthermore, a person of skill in the art will appreciate that all the pounds, or groups of compounds, derived from the various combinations of and substituents shown in Tables 1 to 16, are disclosed by the present the same extent as if each compound or group of compounds was set forth individually.

[1] = S. aureus (MSSA), CAMHB supplemented with 0.625 mM calcium, 24 hours at about 37° C., a range = compound tested multiple times

MIC (24 h) [µg/mL] | MIC [1] | Structure (SMILES)
2 to 4 |  | CCCCCCCCCCCCCCC(=O)NC(CC(=O)O)C(=O)NC1C(=O)N2CCCCC2C(=O)NC(C(C)C(=O)O)C(=O)NC(CC(=O)O)C(=O)NCC(=O)NC(CC(=O)O)C(=O)NCC(=O)NC(C(C)NC(=O)CNC(=O)[C@@H](N)C(C)C)C(=O)NC(C(C)C)C(=O)N2CCCC2C(=O)NC1C (some centres unmarked) [Compound 37, C15-Amphomycin-9-Gly-Val]
2 |  | CCCCCCCCCCCCCCC(=O)NC(CC(=O)O)C(=O)NC1C(=O)N2CCCCC2C(=O)NC(C(C)C(=O)O)C(=O)NC(CC(=O)O)C(=O)NCC(=O)NC(CC(=O)O)C(=O)NCC(=O)NC(C(C)NC(=O)[C@@H](N)CC(N)=O)C(=O)NC(C(C)C)C(=O)N2CCCC2C(=O)NC1C (some centres unmarked) [Compound 38, C15-Amphomycin-9-Asn]
32 to 64 |  | CCCCCCCCCCCCCCC(=O)NC(CC(=O)O)C(=O)NC1C(=O)N2CCCCC2C(=O)NC(C(C)C(=O)O)C(=O)NC(CC(=O)O)C(=O)NCC(=O)NC(CC(=O)O)C(=O)NCC(=O)NC(C(C)NC(=O)[C@@H](N)Cc2ccc(O)cc2)C(=O)NC(C(C)C)C(=O)N2CCCC2C(=O)NC1C (some centres unmarked) [Compound 39, C15-Amphomycin-9-Tyr]
32 to 64 |  | CCCCCCCCCCCCCCC(=O)NC(CC(=O)O)C(=O)NC1C(=O)N2CCCCC2C(=O)NC(C(C)C(=O)O)C(=O)NC(CC(=O)O)C(=O)NCC(=O)NC(CC(=O)O)C(=O)NCC(=O)NC(C(C)NC(=O)[C@@H](N)Cc2c[nH]c3ccccc23)C(=O)NC(C(C)C)C(=O)N2CCCC2C(=O)NC1C (some centres unmarked) [Compound 40, C15-Amphomycin-9-Trp]
4 |  | CCCCCCCCCCCCCCC(=O)NC(CC(=O)O)C(=O)NC1C(=O)N2CCCCC2C(=O)NC(C(C)C(=O)O)C(=O)NC(CC(=O)O)C(=O)NCC(=O)NC(CC(=O)O)C(=O)NCC(=O)NC(C(C)NC(=O)[C@@H](N)c2ccccc2)C(=O)NC(C(C)C)C(=O)N2CCCC2C(=O)NC1C (some centres unmarked) [Compound 41, C15-Amphomycin-9-Phg]
1 |  | CCCCCCCCCCCCCCC(=O)NC(CC(=O)O)C(=O)NC1C(=O)N2CCCCC2C(=O)NC(C(C)C(=O)O)C(=O)NC(CC(=O)O)C(=O)NCC(=O)NC(CC(=O)O)C(=O)NCC(=O)NC(C(C)NC(=O)CNC(=O)CN)C(=O)NC(C(C)C)C(=O)N2CCCC2C(=O)NC1C (centres unmarked) [Compound 42, C15-Amphomycin-9-Gly-Gly]
8 to 16 |  | CCCCCCCCCCCCCCC(=O)NC(CC(=O)O)C(=O)NC1C(=O)N2CCCCC2C(=O)NC(C(C)C(=O)O)C(=O)NC(CC(=O)O)C(=O)NCC(=O)NC(CC(=O)O)C(=O)NCC(=O)NC(C(C)NC(=O)[C@@H](N)CCC(N)=O)C(=O)NC(C(C)C)C(=O)N2CCCC2C(=O)NC1C (some centres unmarked) [Compound 43, C15-Amphomycin-9-Gln]
2 to 4 |  | CCCCCCCCCCCCCCC(=O)NC(CC(=O)O)C(=O)NC1C(=O)N2CCCCC2C(=O)NC(C(C)C(=O)O)C(=O)NC(CC(=O)O)C(=O)NCC(=O)NC(CC(=O)O)C(=O)NCC(=O)NC(C(C)NC(=O)[C@@H](N)[C@@H](C)O)C(=O)NC(C(C)C)C(=O)N2CCCC2C(=O)NC1C (some centres unmarked) [Compound 44, C15-Amphomycin-9-Thr]
1 |  | CCCCCCCCCCCCCCC(=O)NC(CC(=O)O)C(=O)NC1C(=O)N2CCCCC2C(=O)NC(C(C)C(=O)O)C(=O)NC(CC(=O)O)C(=O)NCC(=O)NC(CC(=O)O)C(=O)NCC(=O)NC(C(C)NC(=O)CNC(=O)[C@@H](N)CC(C)C)C(=O)NC(C(C)C)C(=O)N2CCCC2C(=O)NC1C (some centres unmarked) [Compound 46, C15-Amphomycin-9-Gly-Leu]
8 |  | CCCCCCCCCCCCCCC(=O)NC(CC(=O)O)C(=O)NC1C(=O)N2CCCCC2C(=O)NC(C(C)C(=O)O)C(=O)NC(CC(=O)O)C(=O)NCC(=O)NC(CC(=O)O)C(=O)NCC(=O)NC(C(C)NC(=O)CNC(=O)CCC(=O)O)C(=O)NC(C(C)C)C(=O)N2CCCC2C(=O)NC1C (centres unmarked) [Compound 48, C15-Amphomycin-9-Gly-Suc]
4 |  | CCCCCCCCCCCCCCC(=O)NC(CC(=O)O)C(=O)NC1C(=O)N2CCCCC2C(=O)NC(C(C)C(=O)O)C(=O)NC(CC(=O)O)C(=O)NCC(=O)NC(CC(=O)O)C(=O)NCC(=O)NC(C(C)NC(=O)CNC(C)=O)C(=O)NC(C(C)C)C(=O)N2CCCC2C(=O)NC1C (centres unmarked) [Compound 49, C15-Amphomycin-9-Gly-Ac]
 | 50/1 μg/mL | CCCCCCCCCCCCC(=O)NC(CC(=O)O)C(=O)NC1C(=O)N2CCCCC2C(=O)NC(C(C)C(=O)O)C(=O)NC(CC(=O)O)C(=O)NCC(=O)NC(CC(=O)O)C(=O)NCC(=O)NC(C(C)NC(=O)CCCN)C(=O)NC(C(C)C)C(=O)N2CCCC2C(=O)NC1C (centres unmarked) [Compound 50, C13-Amphomycin-9-GABA]
16 |  | CCCCCCCCCCCCCCC(=O)NC(CC(=O)O)C(=O)NC1C(=O)N2CCCCC2C(=O)NC(C(C)C(=O)O)C(=O)NC(CC(=O)O)C(=O)NCC(=O)NC(CC(=O)O)C(=O)NCC(=O)NC(C(C)NC(=O)[C@@H](N)Cc2ccc(OC)cc2)C(=O)NC(C(C)C)C(=O)N2CCCC2C(=O)NC1C (some centres unmarked) [Compound 52, C15-Amphomycin-9-Tyr(Me)]
 | 53/8 μg/mL | CCCCCCCCCCCCC(=O)NC(CC(=O)O)C(=O)NC1C(=O)N2CCCCC2C(=O)NC(C(C)C(=O)O)C(=O)NC(CC(=O)O)C(=O)NCC(=O)NC(CC(=O)O)C(=O)NCC(=O)NC(C(C)NC(=O)CN)C(=O)NC(C(C)C)C(=O)N2CCCC2C(=O)NC1C (centres unmarked) [Compound 53, C13-Amphomycin-9-Gly]
 | 54/2-4 μg/mL | CCCCCCCCCCCCC(=O)NC(CC(=O)O)C(=O)NC1C(=O)N2CCCCC2C(=O)NC(C(C)C(=O)O)C(=O)NC(CC(=O)O)C(=O)NCC(=O)NC(CC(=O)O)C(=O)NCC(=O)NC(C(C)NC(=O)CCN)C(=O)NC(C(C)C)C(=O)N2CCCC2C(=O)NC1C (stereo not drawn) [Compound 54, C13-Amphomycin-9-(β-Ala)]
 | 55/1 μg/mL | CCCCCCCCCCCCC(=O)NC(CC(=O)O)C(=O)NC1C(=O)N2CCCCC2C(=O)NC(C(C)C(=O)O)C(=O)NC(CC(=O)O)C(=O)NCC(=O)NC(CC(=O)O)C(=O)NCC(=O)NC(C(C)NC(=O)CNC)C(=O)NC(C(C)C)C(=O)N2CCCC2C(=O)NC1C (centres unmarked) [Compound 55, C13-Amphomycin-9-Sar]
 | 57/16 μg/mL | CCCCCCCCCCCC(=O)NC(CC(=O)O)C(=O)NC1C(=O)N2CCCCC2C(=O)NC(C(C)C(=O)O)C(=O)NC(CC(=O)O)C(=O)NCC(=O)NC(CC(=O)O)C(=O)NCC(=O)NC(C(C)NC(=O)CCCN)C(=O)NC(C(C)C)C(=O)N2CCCC2C(=O)NC1C (centres unmarked) [Compound 57, C12-Amphomycin-9-GABA]
 | 58/4-8 μg/mL | CCCCCCCCCCCC(=O)NC(CC(=O)O)C(=O)NC1C(=O)N2CCCCC2C(=O)NC(C(C)C(=O)O)C(=O)NC(CC(=O)O)C(=O)NCC(=O)NC(CC(=O)O)C(=O)NCC(=O)NC(C(C)NC(=O)CN)C(=O)NC(C(C)C)C(=O)N2CCCC2C(=O)NC1C (centres unmarked) [Compound 58, C12-Amphomycin-9-Gly]
 | 59/0.5-1 μg/mL | CCCCCCCCCCCCCC(=O)NC(CC(=O)O)C(=O)NC1C(=O)N2CCCCC2C(=O)NC(C(C)C(=O)O)C(=O)NC(CC(=O)O)C(=O)NCC(=O)NC(CC(=O)O)C(=O)NCC(=O)NC(C(C)NC(=O)CCN)C(=O)NC(C(C)C)C(=O)N2CCCC2C(=O)NC1C (stereo not drawn) [Compound 59, C14-Amphomycin-9-(β-Ala)]
 | 62/0.5-1 μg/mL | CCCCCCCCCCCCCC(=O)NC(CC(=O)O)C(=O)NC1C(=O)N2CCCCC2C(=O)NC(C(C)C(=O)O)C(=O)NC(CC(=O)O)C(=O)NCC(=O)NC(CC(=O)O)C(=O)NCC(=O)NC(C(C)NC(=O)CCCN)C(=O)NC(C(C)C)C(=O)N2CCCC2C(=O)NC1C (centres unmarked) [Compound 62, C14-Amphomycin-9-GABA]
4 |  | CCCCCCCCCCCCCCC(=O)NC(CC(=O)O)C(=O)NC1C(=O)N2CCCCC2C(=O)NC(C(C)C(=O)O)C(=O)NC(CC(=O)O)C(=O)NCC(=O)NC(CC(=O)O)C(=O)NCC(=O)NC(C(C)NC(=O)[C@@H](C)N)C(=O)NC(C(C)C)C(=O)N2CCCC2C(=O)NC1C (stereo partly drawn) [Compound 66, C15-Amphomycin-9-(D-Ala)]
2 |  | CCCCCCCCCCCCCCC(=O)NC(CC(=O)O)C(=O)NC1C(=O)N2CCCCC2C(=O)NC(C(C)C(=O)O)C(=O)NC(CC(=O)O)C(=O)NCC(=O)NC(CC(=O)O)C(=O)NCC(=O)NC(C(C)NC(=O)CNC(=O)CCCN)C(=O)NC(C(C)C)C(=O)N2CCCC2C(=O)NC1C (centres unmarked) [Compound 68, C15-Amphomycin-9-Gly-GABA]
2 |  | CCCCCCCCCCCCCCC(=O)NC(CC(=O)O)C(=O)NC1C(=O)N2CCCCC2C(=O)NC(C(C)C(=O)O)C(=O)NC(CC(=O)O)C(=O)NCC(=O)NC(CC(=O)O)C(=O)NCC(=O)NC(C(C)NC(=O)CCNC(=O)CCCCCN)C(=O)NC(C(C)C)C(=O)N2CCCC2C(=O)NC1C (stereo not drawn) [Compound 70, C15-Amphomycin-9-(β-Ala)-Ahx]
4 |  | CCCCCCCCCCCCCCC(=O)NC(CC(=O)O)C(=O)NC1C(=O)N2CCCCC2C(=O)NC(C(C)C(=O)O)C(=O)NC(CC(=O)O)C(=O)NCC(=O)NC(CC(=O)O)C(=O)NCC(=O)NC(C(C)NC(=O)CCCNC(=O)[C@@H](N)C(C)C)C(=O)NC(C(C)C)C(=O)N2CCCC2C(=O)NC1C (some centres unmarked) [Compound 71, C15-Amphomycin-9-GABA-Val]
8 |  | CCCCCCCCCCCCCCC(=O)NC(CC(=O)O)C(=O)NC1C(=O)N2CCCCC2C(=O)NC(C(C)C(=O)O)C(=O)NC(CC(=O)O)C(=O)NCC(=O)NC(CC(=O)O)C(=O)NCC(=O)NC(C(C)NC(=O)CCCNC(=O)CCCCCN)C(=O)NC(C(C)C)C(=O)N2CCCC2C(=O)NC1C (centres unmarked) [Compound 72, C15-Amphomycin-9-GABA-Ahx]
 | 73/2-4 μg/mL | CCCCCCCCCCCC(=O)NC(CC(=O)O)C(=O)NC1C(=O)N2CCCCC2C(=O)NC(C(C)C(=O)O)C(=O)NC(CC(=O)O)C(=O)NCC(=O)NC(CC(=O)O)C(=O)NCC(=O)NC(C(C)NC(=O)CCN)C(=O)NC(C(C)C)C(=O)N2CCCC2C(=O)NC1C (stereo not drawn) [Compound 73, C12-Amphomycin-9-(β-Ala)]
